Measurements reported in the supplement of paper PMC11821682.

Tests used:
[1] = system: Danio rerio embryo; experiment: BMC10 any morphological effect or mortality at 120 hpf; higher = less toxic
Description: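 ZBEscreen: dechorionated Tropical 5D zebrafish embryos were exposed from 4 hpf in 96-well plates (1% DMSO, 28 °C). All compounds were first tested at 100 µM; hits were retested at 0.005-100 µM. Morphology and mortality were scored at 120 hpf and fitted as BMC10 (3-parameter log-logistic, extra risk). The embryonic photomotor response at 24 hpf and the larval photomotor response at 120 hpf are given as lowest effect levels (K-S test, p<0.01). NA = not significant up to 100 µM; NT = not tested.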

[2] = system: HL-60; experiment: Cell Health Index (toxicity pseudo-probability over dose series) (index 0-1); higher = more cytotoxic / cell stress;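 note: HL-60 cells exposed 4 h at 37 °C to ten threefold dilutions spanning 5 nM to 100 µM, multiparametric flow cytometry features scored by machine-learning classification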

| Structure (SMILES) | BMC10 any morphological effect or mortality [1] [µM] | Cell Health Index [2] |
| --- | --- | --- |
| COc1cc2c(cc1OC)CN(CCc1ccc(NC(=O)c3cccc4c(=O)c5cccc(OC)c5[nH]c34)cc1)CC2 [Elacridar] | > 100 | 0.592 |
| Cl.NCC(=O)CCC(=O)O [5-Aminolevulinic acid] | > 100 | 0.194 |
| CCC[C@H](NC(=O)[C@@H]1[C@H]2CCC[C@H]2CN1C(=O)[C@@H](NC(=O)[C@@H](NC(=O)c1cnccn1)C1CCCCC1)C(C)(C)C)C(=O)C(=O)NC1CC1 [Telaprevir] | > 100 | 0.402 |
| Nc1ncnc2c1ncn2[C@@H]1O[C@H](CO)[C@@H](O)[C@@H]1O [Vidarabine] | > 100 | 0.234 |
| O=C1CCC[C@@H]2[C@H]3CCC[N+]4([O-])CCC[C@@H](CN12)[C@@H]34 (stereo partly specified) [Oxymatrine] | > 100 | 0.187 |
| CCCCN(CCCC)CC(O)c1cc(Cl)cc2c1-c1ccc(Cl)cc1/C2=C/c1ccc(Cl)cc1 (stereo unspecified) [Lumefantrine] | > 100 | 0.218 |
| O=c1cc(-c2ccc(O)c(O)c2)oc2cc(O)cc(O)c12 [Luteolin] | > 100 | 0.54 |
| Nc1nc(=O)n([C@@H]2CS(=O)[C@H](CO)O2)cc1F (stereo partly specified) [Emtricitabine S-oxide] | > 100 | 0.188 |
| CCNCc1nc2c(N)nc3ccccc3c2n1CC(C)(C)O [Gardiquimod] | > 100 | 0.172 |
| O=C1/C(=C/c2ccc(O)c(O)c2)COc2cc(O)ccc21 [Sappanone A] | > 100 | 0.614 |
| CCCNC(=O)[C@H]1O[C@@H]1C(=O)N[C@H](C(=O)N1CCC[C@H]1C(=O)O)[C@@H](C)CC [CA-074] | > 100 | 0.179 |
| Cc1cc(O)c2c(c1)C(=O)c1cccc(O)c1C2=O [Chrysophanol] | > 100 | 0.288 |
| [Cl-].c1c2c(cc3c1OCO3)-c1cc3ccc4c(c3c[n+]1CC2)OCO4 [Coptisine] | > 100 | 0.777 |
| O=c1c(O[C@@H]2O[C@H](CO)[C@H](O)[C@H](O)[C@H]2O)c(-c2ccc(O)c(O)c2)oc2cc(O)cc(O)c12 [Quercetin 3-D-galactoside] | > 100 | 0.218 |
| COc1cc(NC(=O)Nc2cccc(CNC(=O)O[C@H]3CCOC3)c2)ccc1-c1cnco1 [Merimepodib] | > 100 | 0.67 |
| COc1ncnc(NS(=O)(=O)c2ccc(N)cc2)c1OC [Sulfadoxin] | > 100 | 0.201 |
| O=c1c(-c2ccc(O)cc2)coc2cc(O[C@@H]3O[C@H](CO)[C@@H](O)[C@H](O)[C@H]3O)ccc12 [Daidzin] | > 100 | 0.169 |
| O=C(O)CCCCCCCCCCCCCCCCCCCO [20-hydroxy Arachidic acid] | > 100 | 0.215 |
| C1=C2CCCN[C@H]2[C@@H]2C[C@H]1[C@H]1CCCCN1C2 [Aloperine] | > 100 | 0.209 |
| Nc1nc2c(ncn2COCCO)c(=O)[nH]1 [Acyclovir] | > 100 | 0.214 |
| COC(=O)CC[C@H](NC(=O)[C@H](C)NC(=O)OCc1ccccc1)C(=O)N[C@H](C(=O)N[C@@H](CC(=O)OC)C(=O)CF)C(C)C [Z-AEVD-FMK] | > 100 | 0.179 |
| CCCN(CCC)S(=O)(=O)c1ccc(C(=O)O)cc1 [Probenecid] | > 100 | 0.196 |
| O=C(O)/C(S)=C/c1ccc(I)cc1 | > 100 | 0.32 |
